In patent US6864217B2, “Herbicidal compositions with substituted phenylsulfonylureas for controlling weeds in rice” (Hoechst Schering AgrEvo GmbH, priority 1998, dated 2005):
Counter-ions that a name gives are not always drawn. Like-named read-outs stand apart in the source and are kept apart here.

How the values were obtained:
Oryza sativa [1] = experiment: Table 2a field trial, treatment at the 1-2 leaf stage rice: rice damage; details: 28 days after application
Procedure: (§4) The examples mentioned below were carried out in the greenhouse, and in some instances, in field trials.

Oryza sativa [2] = experiment: Table 23 field trial, treatment: 4-6 leaf stage: rice damage; assay type: in vivo; details: 36 days after application
Text: Field trial: Treatment: 4-6 leaf stage, evaluation 36 days after the application.

Oryza sativa [3] = experiment: Table 6 field trial, treatment at the 1-2 leaf stage: rice damage; assay type: in vivo; details: 2 g of ai/ha; field trial, 28 days after application
Procedure: as §4

Oryza sativa [4] = experiment: Table 4 field trial: rice damage
Procedure: as §4

Cyperus irria = experiment: Table 3 field trial, treatment at the 2 leaf stage weed grasses: weed control; assay type: in vivo; details: 28 days after application
Procedure: as §4

Sagittaria pygmaea [5] = experiment: Table 14 greenhouse trial, treatment at the 3-4 leaf stage: weed control; assay type: in vivo; details: 21 days after application
Procedure: (§1) Seeds or rhizome pieces of mono- and dicotyledonous weed plants are placed into sandy loam soil in plastic pots, covered with soil and grown in a greenhouse under good growth conditions (temperature, atmospheric humidity, water supply). Weeds which are encountered in the cultivation of rice are cultivated in pots in which the water level is up to 2 cm over the soil surface. Three weeks after sowing, the test plants are treated at the three-leaf stage. The active compound combinations according to the invention, formulated as wettable powders or emulsion concentrates, and, in parallel experiments, the correspondingly formulated individual active compounds are sprayed onto the green parts of the plants at different dosages using an amount of water of 300 to 600 l/ha (converted), and, after about 3 to 4 weeks of the test plants in the greenhouse under optimum growth conditions (temperature, atmospheric humidity, water supply), the effect of the preparations is evaluated visually in comparison to untreated controls. In the case of rice or weeds which are encountered in the cultivation of rice, the active compounds are also added directly to the water for irrigation (application analogous to the so-called granules application) or sprayed onto plants and added to the water for irrigation. The experiments were designed with several, up to five, repetitions. The herbicidal compositions according to the invention also have good herbicidal post-emergence activity against a broad spectrum of economically important weed grasses and broad-leaved weeds.
(§2) Greenhouse trial: Treatment at the 3-4 leaf stage, evaluation 21 days after the application.

Leptochloa filiformis = experiment: Table 2a field trial, treatment at the 2-3 leaf stage weed grasses: weed control; assay type: in vivo; details: 28 days after application
Procedure: as §4

Oryza sativa [6] = experiment: Table 14 greenhouse trial, treatment at the 3-4 leaf stage: rice damage; assay type: in vivo; details: 21 days after application
Procedure: as §1, §2

Oryza sativa [7] = experiment: Table 26 field trial, treatment at the 3 leaf stage: rice damage; assay type: in vivo; details: 33 days after application
Text: Field trial: Treatment at the 3 leaf stage, evaluation 33 days after the application.

Ipomoea hederacea = experiment: Table 20 field trial, treatment at the 4-6 leaf stage: weed control; assay type: in vivo; details: 2.5 g of ai/ha, 28 days after application
Text: Field trial: Treatment at the 4-6 leaf stage, evaluation 28 days after the application.

Echinochloa crusgalli [8] = experiment: Table 9 greenhouse trial, treatment at the 1-2 leaf stage: weed control; assay type: in vivo; details: 22 days after application
Procedure: as §1
Greenhouse trial: Treatment at the 1-2 leaf stage, evaluation 22 days after the application.

Cyperus serotinus = experiment: Table 12 greenhouse trial, treatment at the 1-2 leaf stage: weed control; assay type: in vivo; details: 20 days after application
Procedure: as §1
(§3) Greenhouse trial: Treatment at the 1-2 leaf stage, evaluation 20 days after the application.

Marsilea crenata = experiment: Table 7 field trial, treatment at the 1-2 leaf stage: weed control; assay type: in vivo; details: 2 g of ai/ha, 28 days after application
Procedure: as §4

Oryza sativa [9] = experiment: Table 7 field trial, treatment at the 1-2 leaf stage: rice damage; assay type: in vivo; details: 2 g of ai/ha, 28 days after application
Procedure: as §4

Oryza sativa [10] = experiment: Table 21 field trial, treatment at the 2 leaf stage: rice damage; assay type: in vivo; details: 2.5 g of ai/ha; field trial, 28 days after application
Text: Field trial: Treatment at the 2 leaf stage, evaluation 28 days after the application.

Echinochloa crusgalli [11] = experiment: Table 6 field trial, treatment at the 1-2 leaf stage: weed control; assay type: in vivo; details: 2 g of ai/ha, 28 days after application
Procedure: as §4

[12] = test system: Oryza sativa (paddy rice); experiment: Table 1: damage to paddy rice; assay type: in vivo
Procedure: as §4

Oryza sativa [13] = experiment: Table 10 greenhouse trial, treatment at the 1-2 leaf stage: rice damage; assay type: in vivo; details: in vivo
Procedure: as §1, §3

Oryza sativa [14] = details: in vivo
Procedure: as §1, with “The herbicidal compositions according to the invention also have good herbicidal post-emergence activity against a broad spectrum of economically important weed grasses and broad-leaved weeds.” left out

Echinochloa crusgalli [15] = experiment: Table 4 field trial: weed control; assay type: in vivo
Procedure: as §4

Oryza sativa [16] = experiment: Table 2 field trial, treatment at the 1-2 leaf stage rice: rice damage; details: 28 days after application
Procedure: as §4

Oryza sativa [17] = experiment: Table 5 field trial, treatment at the 2-4 leaf stage rice: rice damage; assay type: in vivo; details: evaluation after 28 days
Procedure: as §4

Sagittaria pygmaea [18] = experiment: Table 22 field trial, treatment: 1-2 leaf stage: weed control; assay type: in vivo; details: 28 days after application
Text: Field trial: Treatment: 1-2 leaf stage, evaluation 28 days after the application.

Question: For `COC(=O)c1ccc(I)cc1S(=O)(=O)NC(=O)Nc1nc(C)nc(OC)n1` [A1*), Sodium salt of methyl 4-iodo-2-[3-(4-methoxy-6-methyl-1,3,5-triazin-2-yl)ureidosulfonyl]benzoate], which ORYSW % damage (Oryza sativa [1]; 1.25 g of ai/ha) is on record?
Answer: 10%

Question: And the ORYSW % damage (Oryza sativa [1]; 2.5 g of ai/ha)?
Answer: 25%

Question: And the ORYSW % damage (Oryza sativa [1]; 5 g of ai/ha)?
Answer: 25%

Question: And the ORYSW % damage (Oryza sativa [2]; 0.62 g of ai/ha)?
Answer: 3%

Question: What about the ORYSW % damage (Oryza sativa [2]; 1.25 g of ai/ha) of the same compound?
Answer: 8%

Question: What about the ORYSW % damage (Oryza sativa [2]; 2.5 g of ai/ha) of the same compound?
Answer: 12%

Question: What about the ORYSW % damage (Oryza sativa [3]) of the same compound?
Answer: 0%

Question: What about the ORYSW % damage (Oryza sativa [4]; 1.25 g of ai/ha) of the same compound?
Answer: 0%

Question: What about the ORYSW % damage (Oryza sativa [4]; 2.5 g of ai/ha) of the same compound?
Answer: 0%

Question: What about the ORYSW % damage (Oryza sativa [4]; 5 g of ai/ha) of the same compound?
Answer: 1%

Question: And the CYPIR % control (Cyperus irria; 0.75 g of ai/ha)?
Answer: 40%

Question: What about the CYPIR % control (Cyperus irria; 1.5 g of ai/ha) of the same compound?
Answer: 67%

Question: And the CYPIR % control (Cyperus irria; 2.5 g of ai/ha)?
Answer: 87%

Question: And the SAGPY % control (Sagittaria pygmaea [5]; 1.5 g of ai/ha)?
Answer: 30%

Question: And the SAGPY % control (Sagittaria pygmaea [5]; 3 g of ai/ha)?
Answer: 50%

Question: And the LEFFI % control (Leptochloa filiformis; 1.25 g of ai/ha)?
Answer: 0%

Question: What about the LEFFI % control (Leptochloa filiformis; 2.5 g of ai/ha) of the same compound?
Answer: 73%

Question: And the LEFFI % control (Leptochloa filiformis; 5 g of ai/ha)?
Answer: 72%

Question: What about the ORYSW % damage (Oryza sativa [6]; 1.5 g of ai/ha) of the same compound?
Answer: 10%

Question: What about the ORYSW % damage (Oryza sativa [6]; 3 g of ai/ha) of the same compound?
Answer: 10%

Question: And the ORYSW % damage (Oryza sativa [7]; 2.5 g of ai/ha)?
Answer: 0%

Question: What about the ORYSW % damage (Oryza sativa [7]; 5 g of ai/ha) of the same compound?
Answer: 0%

Question: And the IPOHE % control (Ipomoea hederacea)?
Answer: 30%

Question: And the ECHCG % control (Echinochloa crusgalli [8]; 1.5 g of ai/ha)?
Answer: 40%

Question: And the ECHCG % control (Echinochloa crusgalli [8]; 3 g of ai/ha)?
Answer: 60%

Question: And the CYPSE % control (Cyperus serotinus; 1.5 g of ai/ha)?
Answer: 10%

Question: And the CYPSE % control (Cyperus serotinus; 3 g of ai/ha)?
Answer: 30%

Question: And the MASCR % control (Marsilea crenata)?
Answer: 33%

Question: And the ORYSW % damage (Oryza sativa [9])?
Answer: 0%

Question: What about the ORYSW % damage (Oryza sativa [10]) of the same compound?
Answer: 8%

Question: What about the ECHCG % control (Echinochloa crusgalli [11]) of the same compound?
Answer: 10%

Question: What about the ORYSW % damage ([12]; 1.25 g of ai/ha) of the same compound?
Answer: 15%

Question: What about the ORYSW % damage ([12]; 2.5 g of ai/ha) of the same compound?
Answer: 15%

Question: And the ORYSW % damage (Oryza sativa [13])?
Answer: 10%

Question: And the ORYSW % damage (Oryza sativa [14])?
Answer: 10%

Question: And the ECHCG % control (Echinochloa crusgalli [15]; 1.25 g of ai/ha)?
Answer: 0%

Question: What about the ECHCG % control (Echinochloa crusgalli [15]; 2.5 g of ai/ha) of the same compound?
Answer: 0%

Question: And the ECHCG % control (Echinochloa crusgalli [15]; 5 g of ai/ha)?
Answer: 0%

Question: And the ORYSW % damage (Oryza sativa [16]; 1.25 g of ai/ha)?
Answer: 10%

Question: And the ORYSW % damage (Oryza sativa [16]; 2.5 g of ai/ha)?
Answer: 25%

Question: And the ORYSW % damage (Oryza sativa [16]; 5 g of ai/ha)?
Answer: 25%

Question: And the ORYSW % damage (Oryza sativa [17]; 1.25 g of ai/ha)?
Answer: 0%

Question: What about the ORYSW % damage (Oryza sativa [17]; 2.5 g of ai/ha) of the same compound?
Answer: 0%

Question: What about the ORYSW % damage (Oryza sativa [17]; 5 g of ai/ha) of the same compound?
Answer: 1%

Question: And the SAGPY % control (Sagittaria pygmaea [18]; 2.5 g of ai/ha)?
Answer: 20%

Question: And the SAGPY % control (Sagittaria pygmaea [18]; 5 g of ai/ha)?
Answer: 40%
